# Patent publication US20190367516A1 (Bayer Pharma Aktiengesellschaft, priority 2015, published 2019)
# Molecular target: T1, human M2 receptor (Homo sapiens, UniProt P08172)
# T1 sequence (P08172 1-466): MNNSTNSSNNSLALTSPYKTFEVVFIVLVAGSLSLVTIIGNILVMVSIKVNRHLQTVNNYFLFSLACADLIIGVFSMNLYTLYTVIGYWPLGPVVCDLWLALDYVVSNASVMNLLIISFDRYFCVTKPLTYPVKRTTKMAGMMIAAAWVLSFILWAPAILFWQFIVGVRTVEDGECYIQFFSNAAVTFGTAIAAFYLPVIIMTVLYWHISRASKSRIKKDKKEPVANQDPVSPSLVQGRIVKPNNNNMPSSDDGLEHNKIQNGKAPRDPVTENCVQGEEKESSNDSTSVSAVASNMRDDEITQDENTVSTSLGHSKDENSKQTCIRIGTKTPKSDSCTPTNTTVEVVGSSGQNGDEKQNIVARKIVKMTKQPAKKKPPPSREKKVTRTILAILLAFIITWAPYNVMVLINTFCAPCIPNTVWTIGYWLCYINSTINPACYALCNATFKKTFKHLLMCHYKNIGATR
# Settings: Receptor activity EC50, M2-GIRK1/4 activation test, acetylcholine at EC20; allosteric potency; in some cases mean values from two or more determinations
row,EC50 [nM],SMILES
1,34,"CC[C@@H](NC(=O)c1cn(-c2c(F)cc(F)cc2F)c2nc(N3CCC(C)(O)C3)ccc2c1=O)C(F)(F)F (stereo partly drawn) [Example 324, 7-[3-Hydroxy-3-methylpyrrolidin-1-yl]-4-oxo-N-[(2R)-1,1,1-trifluorobutan-2-yl]-1-(2,4,6-trifluorophenyl)-1,4-dihydro-1,8-naphthyridine-3-carboxamide]"
2,69,"CC[C@H](NC(=O)c1cn(-c2c(F)cccc2F)c2nc(N3CCC(C)(O)C3)ccc2c1=O)C(F)(F)F (stereo partly drawn) [Example 327, 1-(2,6-Difluorophenyl)-7-[3-hydroxy-3-methylpyrrolidin-1-yl]-4-oxo-N-[(2S)-1,1,1-trifluorobutan-2-yl]-1,4-dihydro-1,8-naphthyridine-3-carboxamide]"
3,79,"CC[C@@H](NC(=O)c1cn(-c2ccc(F)cc2F)c2nc(N3CC(C)(OC)C3)ccc2c1=O)C(F)(F)F [Example 328, 1-(2,4-Difluorophenyl)-7-(3-methoxy-3-methyazetidin-1-yl)-4-oxo-N-[(2R)-1,1,1-trifluorobutan-2-yl]-1,4-dihydro-1,8-naphthyridine-3-carboxamide]"
4,7,"CC[C@H](NC(=O)c1cn(-c2c(F)cc(F)cc2Cl)c2nc(N3C[C@@](C)(O)C[C@H]3C)ccc2c1=O)C(F)(F)F [Example 334, 1-(2-Chloro-4,6-difluorophenyl)-7-[(2R,4S)-4-hydroxy-2,4-dimethylpyrrolidin-1-yl]-4-oxo-N-[(2S)-1,1,1-trifluorobutan-2-yl]-1,4-dihydro-1,8-naphthyridine-3-carboxamide]"
5,36,"CC[C@@H](NC(=O)c1cn(-c2ccc(F)cc2F)c2nc(N3CCCC3=O)ccc2c1=O)C(F)(F)F [Example 337, 1-(2,4-Difluorophenyl)-4-oxo-7-(2-oxopyrrolidin-1-yl)-N-[(2R)-1,1,1-trifluorobutan-2-yl]-1,4-dihydro-1,8-naphthyridine-3-carboxamide]"
6,56,"C[C@H](NC(=O)c1cn(-c2c(F)cc(F)cc2F)c2nc(N3CCNC3=O)ccc2c1=O)C(F)(F)F [Example 341, 4-Oxo-7-(2-oxoimidazolidin-1-yl)-1-(2,4,6-trifluorophenyl)-N-[(2S)-1,1,1-trifluoropropan-2-yl]-1,4-dihydro-1,8-naphthyridine-3-carboxamide]"
7,25,"CC[C@H](NC(=O)c1cn(-c2c(F)cc(F)cc2F)c2nc(N3CCNC3=O)ccc2c1=O)C(F)(F)F [Example 343, 4-Oxo-7-(2-oxoimidazolidin-1-yl)-N-[(2S)-1,1,1-trifluorobutan-2-yl]-1-(2,4,6-trifluorophenyl)-1,4-dihydro-1,8-naphthyridine-3-carboxamide]"
8,54,"CC[C@@H](NC(=O)c1cn(-c2ccc(F)cc2F)c2nc(N3CCCN(CC)C3=O)ccc2c1=O)C(F)(F)F [Example 344, 1-(2,4-Difluorophenyl)-7-(3-ethyl-2-oxotetrahydropyrimidin-1(2H)-yl)-4-oxo-N-[(2R)-1,1-trifluorobutan-2-yl]-1,4-dihydro-1,8-naphthyridine-3-carboxamide]"
9,59,"O=C(N[C@@H](C1CC1)C(F)(F)F)c1cn(-c2c(F)cccc2F)c2nc(N3C[C@@H](O)[C@H](O)C3)ccc2c1=O [Example 345, N-[(1 S)-1-Cyclopropyl-2,2,2-trifluoroethyl]-1-(2,6-difluorophenyl)-7-[(3R,4R)-3,4-dihydroxypyrrolidin-1-yl]-4-oxo-1,4-dihydro-1,8-naphthyridine-3-carboxamide]"
10,50,"CC[C@H](NC(=O)c1cn(-c2c(F)cccc2Cl)c2nc(N3C[C@@H](O)[C@H](O)C3)ccc2c1=O)C(F)(F)F [Example 346, 1-(2-Chloro-6-fluorophenyl)-7-[(3R,4R)-3,4-dihydroxypyrrolidin-1-yl]-4-oxo-N-[(2S)-1,1-trifluorobutan-2-yl]-1,4-dihydro-1,8-naphthyridine-3-carboxamide]"
11,34,"O=C(N[C@@H](C1CC1)C(F)(F)F)c1cn(-c2c(F)cccc2Cl)c2nc(N3C[C@@H](O)[C@H](O)C3)ccc2c1=O [Example 347, 1-(2-Chloro-6-fluorophenyl)-N-[(1 S)-1-cyclopropyl-2,2,2-trifluoroethyl]-7-[(3R,4R)-3,4-dihydroxypyrrolidin-1-yl]-4-oxo-1,4-dihydro-1,8-naphthyridine-3-carboxamide]"
12,61,"CC[C@H](NC(=O)c1cn(-c2c(F)cccc2F)c2nc(N3C[C@@H](O)[C@H](O)C3)ccc2c1=O)C(F)(F)F [Example 348, 1-(2,6-Difluorophenyl)-7-[(3R,4R)-3,4-dihydroxypyrrolidin-1-yl]-4-oxo-N-[(2S)-1,1,1-trifluorobutan-2-yl]-1,4-dihydro-1,8-naphthyridine-3-carboxamide]"
13,17,"CC[C@H](NC(=O)c1cn(-c2c(F)cccc2Cl)c2nc(N3C[C@@H](O)CC3=O)ccc2c1=O)C(F)(F)F [Example 351, 1-(2-Chloro-6-fluorophenyl)-7-[(4S)-4-hydroxy-2-oxopyrrolidin-1-yl]-4-oxo-N-[(2S)-1,1,1-trifluorobutan-2-yl]-1,4-dihydro-1,8-naphthyridine-3-carboxamide]"
14,17,"O=C(N[C@@H](C1CC1)C(F)(F)F)c1cn(-c2c(F)cccc2Cl)c2nc(N3C[C@@H](O)CC3=O)ccc2c1=O [Example 352, 1-(2-Chloro-6-fluorophenyl)-N-[(1S)-1-cyclopropyl-2,2,2-trifluoroethyl]-7-[(4S)-4-hydroxy-2-oxopyrrolidin-1-yl]-4-oxo-1,4-dihydro-1,8-naphthyridine-3-carboxamide]"
15,50,"C[C@@H](COC(F)(F)F)NC(=O)c1cn(-c2c(F)cc(F)cc2F)c2nc(N3C[C@@H](O)[C@H](O)C3)ccc2c1=O [Example 353, 7-[(3R,4R)-3,4-Dihydroxypyrrolidin-1-yl]-4-oxo-N-[(2S)-1-(trifluoromethoxy)propan-2-yl]-1-(2,4,6-trifluorophenyl)-1,4-dihydro-1,8-naphthyridine-3-carboxamide]"
16,38,"CC[C@@H](NC(=O)c1cn(-c2ccc(F)cc2F)c2nc(N3CCC4CC4(O)C3)ccc2c1=O)C(F)(F)F (stereo partly drawn) [Example 354, 1-(2,4-Difluorophenyl)-7-[1-hydroxy-3-azabicyclo[4.1.0]hept-3-yl]-4-oxo-N-[(2R)-1,1,1-trifluorobutan-2-yl]-1,4-dihydro-1,8-naphthyridine-3-carboxamide]"
17,85,"CC[C@@H](NC(=O)c1cn(-c2ccc(F)cc2F)c2nc(N3CC(O)C4(CC4)C3)ccc2c1=O)C(F)(F)F (stereo partly drawn) [Example 355, 1-(2,4-Difluorophenyl)-7-[7-hydroxy-5-azaspiro[2.4]hept-5-yl]-4-oxo-N-[(2R)-1,1,1-trifluorobutan-2-yl]-1,4-dihydro-1,8-naphthyridine-3-carboxamide]"
18,94,"CC[C@@H](NC(=O)c1cn(-c2ccc(F)cc2F)c2nc(N3CC(O)C(C)(C)C3)ccc2c1=O)C(F)(F)F (stereo partly drawn) [Example 356, 1-(2,4-Difluorophenyl)-7-[4-hydroxy-3,3-dimethylpyrrolidin-1-yl]-4-oxo-N-[(2R)-1,1,1-trifluorobutan-2-yl]-1,4-dihydro-1,8-naphthyridine-3-carboxamide]"
19,13,"CC(C)(C)[C@H](NC(=O)c1cn(-c2c(F)cc(F)cc2F)c2nc(N3CCNC3=O)ccc2c1=O)C(F)(F)F [Example 359, 4-Oxo-7-(2-oxoimidazolidin-1-yl)-N-[(2S)-1,1,1-trifluoro-3,3-dimethylbutan-2-yl]-1-(2,4,6-trifluorophenyl)-1,4-dihydro-1,8-naphthyridine-3-carboxamide]"
20,17,"CC(C)(C)[C@@H](NC(=O)c1cn(-c2c(F)cc(F)cc2F)c2nc(N3CCN(CCO)C3=O)ccc2c1=O)C(F)(F)F [Example 361, 7-[3-(2-Hydroxyethyl)-2-oxoimidazolidin-1-yl]-4-oxo-N-[(2R)-1,1,1-trifluoro-3,3-dimethylbutan-2-yl]-1-(2,4,6-trifluorophenyl)-1,4-dihydro-1,8-naphthyridine-3-carboxamide]"
21,100,"O=C(NC12CC(F)(C1)C2)c1cn(-c2c(F)cc(F)cc2F)c2nc(N3C[C@@H](O)CC3=O)ccc2c1=O [Example 367, N-(3-Fluorobicyclo[1.1.1]pent-1-yl)-7-[(4S)-4-hydroxy-2-oxopyrrolidin-1-yl]-4-oxo-1-(2,4,6-trifluorophenyl)-1,4-dihydro-1,8-naphthyridine-3-carboxamide]"
22,91,"O=C(NC12CC(F)(C1)C2)c1cn(-c2c(F)cc(F)cc2F)c2nc(N3C[C@@H](O)[C@H](O)C3)ccc2c1=O [Example 368, 7-[(3R,4R)-3,4-Dihydroxypyrrolidin-1-yl]-N-(3-fluorobicyclo[1.1.1]pent-1-yl)-4-oxo-1-(2,4,6-trifluorophenyl)-1,4-dihydro-1,8-naphthyridine-3-carboxamide]"
23,89,"O=C(N[C@@H](C1CC1)C(F)(F)F)c1cn(-c2c(F)cc(F)cc2F)c2nc(N3CCNS3(=O)=O)ccc2c1=O [Example 373, N-[(1 S)-1-Cyclopropyl-2,2,2-trifluoroethyl]-7-(d1,1-dioxido-1,2,5-thiadiazolidin-2-yl)-4-oxo-1-(2,4,6-trifluorophenyl)-1,4-dihydro-1,8-naphthyridine-3-carboxamide]"
24,49,"O=C(N[C@@H](C1CC1)C(F)(F)F)c1cn(-c2c(F)cc(F)cc2F)c2nc(N3CCOC3=O)ccc2c1=O [Example 374, N-[(1S)-1-Cyclopropyl-2,2,2-trifluoroethyl]-4-oxo-7-(2-oxo-1,3-oxazolidin-1.3-yl)-1-(2,4,6-trifluorophenyl)-1,4-dihydro-1,8-naphthyridine-3-carboxamide]"
